According to patent US11566007B2, “Ras inhibitors” (Revolution Medicines, Inc., priority 2019, dated 2023):

How the values were obtained:
NCI-H358 (K-Ras G12C) = assay: CellTiter-Glo cell viability assay, NCI-H358; format: cell-based, human; details: Homo sapiens, NCI-H358, 120 h, NCI-H358, 5-day treatment; class symbols; read-out: Additional H358 Cell Viability assay data (K-Ras G12C, IC50)
Procedure, shortened: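 Viability measured by CellTiter-Glo luminescence on day 5 following direct addition of compound to plated cells. Values expressed as percent of mean DMSO signal; curves fitted with a four-parameter logistic model.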

K-Ras G12C = K-Ras G12C (Homo sapiens (Human), UniProt P01116+P62937, G12C); assay: Ras-Raf (BRAF RBD) disruption / FRET / MOA assay, KRAS G12C; format: biochemical; details: KRAS G12C; Ras-Raf disruption/FRET/MOA assay; read-out: IC50* KRAS G12C FRET data
Procedure, shortened: (§1)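 Compound-driven ternary complex of nucleotide-loaded Ras with cyclophilin A, disrupting BRAF RBD binding. 10-point 3-fold dilution from 30 μM final, 3 h at 25° C, then anti-His Eu-W1024 (10 nM) and anti-GST allophycocyanin (50 nM) for 1.5 h. IC50 from TR-FRET ratio decrease versus DMSO.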

K-Ras G13C = K-Ras G13C (Homo sapiens (Human), UniProt P01116+P62937, G13C); assay: Ras-Raf (BRAF RBD) disruption / FRET / MOA assay, KRAS G13C; format: biochemical; details: KRAS G13C; Ras-Raf disruption/FRET/MOA assay; read-out: IC50* KRAS G13C FRET data
Procedure, shortened: as §1

KRAS G12S = KRAS G12S (Homo sapiens (Human), UniProt P01116+P62937, G12S); assay: Ras-Raf (BRAF RBD) disruption / FRET / MOA assay, KRAS G12S; format: biochemical; details: Ras-Raf disruption/FRET/MOA assay; class symbols; read-out: KRAS G12S FRET data IC50
Procedure, shortened: as §1

KRAS G12D = KRAS G12D (Homo sapiens (Human), UniProt P01116+P62937, G12D); assay: Ras-Raf (BRAF RBD) disruption / FRET / MOA assay, KRAS G12D; format: biochemical; details: Ras-Raf disruption/FRET/MOA assay; class symbols; read-out: KRAS G12D FRET data IC50
Procedure, shortened: as §1

KRAS G12V = KRAS G12V (Homo sapiens (Human), UniProt P01116+P62937, G12V); assay: Ras-Raf (BRAF RBD) disruption / FRET / MOA assay, KRAS G12V; format: biochemical; details: read-out: IC50* KRAS G12V FRET data
Procedure, shortened: as §1

KRAS WT = KRAS WT (Homo sapiens (Human), UniProt P01116+P62937); assay: Ras-Raf (BRAF RBD) disruption / FRET / MOA assay, KRAS WT; format: biochemical; details: read-out: IC50* KRAS WT FRET data
Procedure, shortened: as §1

KRAS G13D = KRAS G13D (Homo sapiens (Human), UniProt P01116+P62937, G13D); assay: Ras-Raf (BRAF RBD) disruption / FRET / MOA assay, KRAS G13D; format: biochemical; details: read-out: IC50* KRAS G13D FRET data
Procedure, shortened: as §1

KRAS Q61H = KRAS Q61H (Homo sapiens (Human), UniProt P01116+P62937, Q61H); assay: Ras-Raf (BRAF RBD) disruption / FRET / MOA assay, KRAS Q61H; format: biochemical; details: Ras-Raf disruption/FRET/MOA assay; class symbols; read-out: KRAS Q61H FRET data IC50
Procedure, shortened: (§2)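 Compounds (30 μM top final, 10-point 3-fold dilutions) incubated 3 h at 25° C with nucleotide-loaded Ras, cyclophilin A and BRAF RBD. Detection with 10 nM anti-His Eu-W1024 and 50 nM anti-GST allophycocyanin over another 1.5 h. Lowered TR-FRET ratio relative to DMSO wells gives IC50.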

NRAS G12C = NRAS G12C (Homo sapiens (Human), UniProt P01111+P62937, G12C); assay: Ras-Raf (BRAF RBD) disruption / FRET / MOA assay, NRAS G12C; format: biochemical; details: read-out: IC50* NRAS G12C FRET data
Procedure, shortened: as §1

NRAS Q61R = NRAS Q61R (Homo sapiens (Human), UniProt P01111+P62937, Q61R); assay: Ras-Raf (BRAF RBD) disruption / FRET / MOA assay, NRAS Q61R; format: biochemical; details: NRAS Q61R; Ras-Raf disruption/FRET/MOA assay; read-out: IC50* NRAS Q61R FRET data
Procedure, shortened: as §2

NRAS WT = NRAS WT (Homo sapiens (Human), UniProt P01111+P62937); assay: Ras-Raf (BRAF RBD) disruption / FRET / MOA assay, NRAS WT; format: biochemical; details: read-out: IC50* NRAS WT FRET data
Procedure, shortened: as §2

Sequence of KRAS G12D (P01116-2 other isoform, or with tags, fused parts or gaps G12D): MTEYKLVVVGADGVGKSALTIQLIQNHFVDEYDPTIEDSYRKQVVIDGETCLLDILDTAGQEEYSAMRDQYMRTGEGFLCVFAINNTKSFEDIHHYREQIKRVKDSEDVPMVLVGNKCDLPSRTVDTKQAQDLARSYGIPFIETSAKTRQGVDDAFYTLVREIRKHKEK
Sequence of KRAS G12D (P62937 whole entry): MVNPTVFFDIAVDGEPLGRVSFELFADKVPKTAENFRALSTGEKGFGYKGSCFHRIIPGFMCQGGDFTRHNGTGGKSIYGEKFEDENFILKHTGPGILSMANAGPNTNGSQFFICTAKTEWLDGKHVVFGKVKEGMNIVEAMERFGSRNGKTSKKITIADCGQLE
Sequence of NRAS Q61R (P01111 whole entry Q61R): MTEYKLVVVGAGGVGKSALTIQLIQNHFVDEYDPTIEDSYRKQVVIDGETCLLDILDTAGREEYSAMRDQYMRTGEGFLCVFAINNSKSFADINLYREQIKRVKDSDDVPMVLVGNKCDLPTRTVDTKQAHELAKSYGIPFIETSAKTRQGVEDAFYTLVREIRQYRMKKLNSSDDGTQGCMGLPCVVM
Sequence of NRAS Q61R (P62937 whole entry): as the sequence (P62937 whole entry) above
Sequence of K-Ras G13C (P01116-2 other isoform, or with tags, fused parts or gaps G13C): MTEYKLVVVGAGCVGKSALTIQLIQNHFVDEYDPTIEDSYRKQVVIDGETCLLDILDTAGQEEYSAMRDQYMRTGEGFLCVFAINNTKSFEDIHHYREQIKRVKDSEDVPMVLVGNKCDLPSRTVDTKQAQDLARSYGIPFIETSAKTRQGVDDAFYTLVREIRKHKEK
Sequence of K-Ras G13C (P62937 whole entry): as the sequence (P62937 whole entry) above
Sequence of KRAS G13D (P01116-2 other isoform, or with tags, fused parts or gaps G13D): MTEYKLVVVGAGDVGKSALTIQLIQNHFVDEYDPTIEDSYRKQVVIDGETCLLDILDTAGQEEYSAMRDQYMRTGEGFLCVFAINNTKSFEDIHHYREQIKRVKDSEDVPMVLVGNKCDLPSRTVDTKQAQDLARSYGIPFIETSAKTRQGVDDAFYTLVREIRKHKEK
Sequence of KRAS G13D (P62937 whole entry): as the sequence (P62937 whole entry) above
Sequence of NRAS WT (P01111 whole entry): as the sequence (P01111 whole entry Q61R) above, with R61Q counted along it
Sequence of NRAS WT (P62937 whole entry): as the sequence (P62937 whole entry) above
Sequence of KRAS G12S (P01116-2 other isoform, or with tags, fused parts or gaps G12S): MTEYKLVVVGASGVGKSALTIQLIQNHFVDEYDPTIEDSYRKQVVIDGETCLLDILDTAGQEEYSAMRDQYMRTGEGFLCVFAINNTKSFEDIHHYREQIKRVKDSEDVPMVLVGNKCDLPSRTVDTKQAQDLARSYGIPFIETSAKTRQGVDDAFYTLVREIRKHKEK
Sequence of KRAS G12S (P62937 whole entry): as the sequence (P62937 whole entry) above
Sequence of KRAS WT (P01116-2 other isoform, or with tags, fused parts or gaps): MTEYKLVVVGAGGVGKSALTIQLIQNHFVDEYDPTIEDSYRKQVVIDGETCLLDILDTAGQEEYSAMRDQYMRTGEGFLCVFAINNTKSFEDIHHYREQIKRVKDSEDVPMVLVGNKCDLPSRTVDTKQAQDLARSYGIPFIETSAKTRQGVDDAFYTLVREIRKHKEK
Sequence of KRAS WT (P62937 whole entry): as the sequence (P62937 whole entry) above
Sequence of KRAS Q61H (P01116-2 other isoform, or with tags, fused parts or gaps Q61H): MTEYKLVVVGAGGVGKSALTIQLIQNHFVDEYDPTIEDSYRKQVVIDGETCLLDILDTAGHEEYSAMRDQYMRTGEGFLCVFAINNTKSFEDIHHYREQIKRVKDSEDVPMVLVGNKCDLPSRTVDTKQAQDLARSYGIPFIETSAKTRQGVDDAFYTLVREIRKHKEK
Sequence of KRAS Q61H (P62937 whole entry): as the sequence (P62937 whole entry) above
Sequence of KRAS G12V (P01116-2 other isoform, or with tags, fused parts or gaps G12V): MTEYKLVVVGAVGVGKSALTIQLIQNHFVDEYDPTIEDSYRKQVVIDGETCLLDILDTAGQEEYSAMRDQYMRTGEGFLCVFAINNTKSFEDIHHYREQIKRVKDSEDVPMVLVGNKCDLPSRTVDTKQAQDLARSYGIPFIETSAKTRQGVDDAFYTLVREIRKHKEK
Sequence of KRAS G12V (P62937 whole entry): as the sequence (P62937 whole entry) above
Sequence of K-Ras G12C (P01116-2 other isoform, or with tags, fused parts or gaps G12C): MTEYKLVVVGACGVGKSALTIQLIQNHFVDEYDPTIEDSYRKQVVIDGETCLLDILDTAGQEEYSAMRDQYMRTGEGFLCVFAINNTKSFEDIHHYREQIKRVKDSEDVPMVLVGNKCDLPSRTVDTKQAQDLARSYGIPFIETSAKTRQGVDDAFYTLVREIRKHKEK
Sequence of K-Ras G12C (P62937 whole entry): as the sequence (P62937 whole entry) above
Sequence of NRAS G12C (P01111 whole entry G12C): as the sequence (P01111 whole entry Q61R) above, with G12C, R61Q counted along it
Sequence of NRAS G12C (P62937 whole entry): as the sequence (P62937 whole entry) above

SMILES | IC50 (NCI-H358 (K-Ras G12C)) [nM] | IC50 (K-Ras G12C) [nM] | IC50 (K-Ras G13C) [nM] | IC50 (KRAS G12S) [nM] | IC50 (KRAS G12D) [nM] | IC50 (KRAS G12V) [nM] | IC50 (KRAS WT) [nM] | IC50 (KRAS G13D) [nM] | IC50 (KRAS Q61H) [nM] | IC50 (NRAS G12C) [nM] | IC50 (NRAS Q61R) [nM] | IC50 (NRAS WT) [nM]
C=CC(=O)N(C)[C@H]1C[C@@H](N(C)C(=O)N(C)[C@H](C(=O)N[C@H]2Cc3nc(cs3)-c3ccc4c(c3)c(c(-c3cccnc3[C@H](C)OC)n4CC)CC(C)(C)COC(=O)[C@@H]3CCCN(N3)C2=O)C(C)C)C1 (atropisomer, axis not shown) [Example A704] | < 10 | 10 to 100 | 100 to 1000 | 100 to 1000 | 100 to 1000 | 100 to 1000 | 10 to 100 | 100 to 1000 | 10 to 100 | 10 to 100 | 10 to 100 | 10 to 100
C=CC(=O)N(C)[C@H]1C[C@H](N(C)C(=O)N(C)[C@H](C(=O)N[C@H]2Cc3nc(cs3)-c3ccc4c(c3)c(c(-c3cccnc3[C@H](C)OC)n4CC)CC(C)(C)COC(=O)[C@@H]3CCCN(N3)C2=O)C(C)C)C1 (atropisomer, axis not shown) [Example A712] | < 10 | 10 to 100 | 100 to 1000 | 10 to 100 | 100 to 1000 | 100 to 1000 | 10 to 100 | 100 to 1000 | 10 to 100 | 10 to 100 | 10 to 100 | 10 to 100
C=CC(=O)N1CCO[C@@H]2CN(C(=O)N(C)[C@H](C(=O)N[C@H]3Cc4nc(cs4)-c4ccc5c(c4)c(c(-c4cccnc4[C@H](C)OC)n5CC)CC(C)(C)COC(=O)[C@@H]4CCCN(N4)C3=O)C(C)C)C[C@@H]21 (atropisomer, axis not shown) [Example A714] | < 10 | 100 to 1000 | 10 to 100 | 100 to 1000 | 1000 to 10000 | 100 to 1000 | 100 to 1000 | 1000 to 10000 | 100 to 1000 | 100 to 1000 | 100 to 1000 | 100 to 1000
CCn1c(-c2cccnc2[C@H](C)OC)c2c3cc(ccc31)N1CCC[C@@H](C[C@H](NC(=O)[C@@H](COC3CN(C(=O)C#CC(C)(C)N(C)C)C3)C(C)C)C(=O)N3CCC[C@H](N3)C(=O)OCC(C)(C)C2)C1 (atropisomer, axis not shown) [Example A715, (2R)-2-(((1-(4-(dimethylamino)-4-methylpent-2-ynoyl)azetidin-3-yl)oxy)methyl)-N-((2^3S,6^3S,4S)-1^1-ethyl-1^2-(2-((S)-1-methoxyethyl)pyridin-3-yl)-10,10-dimethyl-5,7-dioxo-6^1,6^2,6^3,6^4,6^5,6^6-hexahydro-1^1H-8-oxa-1(5,3)-indola-6(1,3)-pyridazina-2(1,3)-piperidinacycloundecaphane-4-yl)-3-methylbutanamide] | 10 to 100 | 10 to 100 | > 10000 | > 10000 | > 10000 | > 10000 | > 10000 | > 10000 | > 10000 | 10 to 100 | > 10000 | > 10000
C=CC(=O)N1CCN(C(=O)N(C)[C@H](C(=O)N[C@H]2Cc3nc(cs3)-c3ccc4c(c3)c(c(-c3cccnc3[C@H](C)OC)n4CC)CC(C)(C)COC(=O)[C@@H]3CCCN(N3)C2=O)C(C)C)[C@@H]2CC[C@@H]21 (atropisomer, axis not shown) [Example A718] | < 10 | 100 to 1000 | 10 to 100 | 100 to 1000 | 1000 to 10000 | 100 to 1000 | 100 to 1000 | 100 to 1000 | 10 to 100 | 100 to 1000 | 100 to 1000 | 100 to 1000
C=CC(=O)N1CC[C@]2(CCN(C(=O)N(C)[C@H](C(=O)N[C@H]3Cc4nc(cs4)-c4ccc5c(c4)c(c(-c4cccnc4[C@H](C)OC)n5CC)CC(C)(C)COC(=O)[C@@H]4CCCN(N4)C3=O)C(C)C)C2)C1 (atropisomer, axis not shown) [Example A719] | 10 to 100 | 10 to 100 | 10 to 100 | 100 to 1000 | 100 to 1000 | 100 to 1000 | 100 to 1000 | 100 to 1000 | 10 to 100 | 10 to 100 | 10 to 100 | 10 to 100
C=CC(=O)N1CC(OC[C@H](C(=O)N[C@H]2Cc3cc(F)cc(c3)-c3ccc4c(c3)c(c(-c3cccnc3[C@H](C)OC)n4CC(F)(F)F)CC(C)(C)COC(=O)[C@@H]3CCCN(N3)C2=O)C(C)C)C1 (atropisomer, axis not shown) [Example A725] | 10 to 100 | 100 to 1000 | 100 to 1000 | 1000 to 10000 | > 10000 | 1000 to 10000 | 1000 to 10000 | 1000 to 10000 | 100 to 1000 | 100 to 1000 | 1000 to 10000 | 1000 to 10000
C=CC(=O)N1CC[C@H](N(C)C(=O)N(C)[C@H](C(=O)N[C@H]2Cc3nc(cs3)-c3ccc4c(c3)c(c(-c3cccnc3[C@H](C)OC)n4CC)CC(C)(C)COC(=O)[C@@H]3CCCN(N3)C2=O)C(C)C)C1 (atropisomer, axis not shown) [Example A728] | 10 to 100 | 100 to 1000 | 100 to 1000 | 100 to 1000 | 1000 to 10000 | 100 to 1000 | 100 to 1000 | 1000 to 10000 | 100 to 1000 | 100 to 1000 | 100 to 1000 | 100 to 1000
C=CC(=O)N1CCN(C(=O)N(C)[C@H](C(=O)N[C@H]2Cc3nc(cs3)-c3ccc4c(c3)c(c(-c3cccnc3[C@H](C)OC)n4CC)CC(C)(C)COC(=O)[C@@H]3CCCN(N3)C2=O)C(C)C)[C@H]2CC[C@H]21 (atropisomer, axis not shown) [Example A734] | 10 to 100 | 10 to 100 | 10 to 100 | 10 to 100 | 100 to 1000 | 10 to 100 | 10 to 100 | 100 to 1000 | 10 to 100 | 10 to 100 | 10 to 100 | 10 to 100
C=CC(=O)N1CC2(C1)OCCCN2C(=O)N(C)[C@H](C(=O)N[C@H]1Cc2nc(cs2)-c2ccc3c(c2)c(c(-c2cccnc2[C@H](C)OC)n3CC)CC(C)(C)COC(=O)[C@@H]2CCCN(N2)C1=O)C(C)C (atropisomer, axis not shown) [Example A735, 2-acryloyl-N-((2S)-1-(((6^3S,4S,Z)-1^1-ethyl-1^2-(2-((S)-1-methoxyethyl)pyridin-3-yl)-10,10-dimethyl-5,7-dioxo-6^1,6^2,6^3,6^4,6^5,6^6-hexahydro-1^1H-8-oxa-2(4,2)-thiazola-1(5,3)-indola-6(1,3)-pyridazinacycloundecaphane-4-yl)amino)-3-methyl-1-oxobutan-2-yl)-N-methyl-5-oxa-2,9-diazaspiro[3.5]nonane-9-carboxamide] | < 10 | < 10 | 1000 to 10000 | > 10000 | > 10000 | > 10000 | 1000 to 10000 | > 10000 | 1000 to 10000 | < 10 | > 10000 | 1000 to 10000
C=CC(=O)N(C)[C@@H]1C[C@H]1N(C)C(=O)N(C)[C@H](C(=O)N[C@H]1Cc2nc(cs2)-c2ccc3c(c2)c(c(-c2cccnc2[C@H](C)OC)n3CC)CC(C)(C)COC(=O)[C@@H]2CCCN(N2)C1=O)C(C)C (atropisomer, axis not shown) [Example A739] | 10 to 100 | 100 to 1000 | 100 to 1000 | 1000 to 10000 | 1000 to 10000 | 1000 to 10000 | 100 to 1000 | 1000 to 10000 | 10 to 100 | 100 to 1000 | 1000 to 10000 | 100 to 1000
